Test results as given in US7138361B2, “Herbicidal heterocycles” (E. I. du Pont de Nemours and Company, priority 2000, dated 2006).

Columns and labels:
Assay type in all cases: in vivo
[1] = system: velvetleaf (Abutilon theophrasti); assay: Test B postemergence; details: 13 to 15 days
Procedure, shortened: (§1)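 Visual injury scores, 0 = no effect to 100 = complete control, assigned against controls after 13 to 15 days in the greenhouse. Compounds formulated in non-phytotoxic solvent plus surfactant and applied to soil after planting (pre) or onto foliage of 1- to 4-leaf plants (post).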

[2] = system: lambsquarters (Chenopodium album); assay: Test B postemergence; details: 13 to 15 days
Procedure, shortened: as §1

[3] = system: Surinam grass (Brachiaria decumbens); assay: Test B postemergence; details: 13 to 15 days
Procedure, shortened: as §1

[4] = system: barnyardgrass (Echinochloa crus-galli); assay: Test B postemergence; details: 13 to 15 days
Procedure, shortened: as §1

[5] = system: morning glory (Ipomoea hederacea); assay: Test B postemergence; details: 13 to 15 days
Procedure, shortened: as §1

[6] = system: wheat (Triticum aestivum); assay: Test B postemergence; details: 13 to 15 days
Procedure, shortened: as §1

[7] = system: crabgrass (Digitaria sanguinalis); assay: Test B postemergence; details: 13 to 15 days
Procedure, shortened: as §1

[8] = system: wild oat (Avena fatua); assay: Test B postemergence; details: 13 to 15 days
Procedure, shortened: as §1

[9] = system: blackgrass (Alopecurus myosuroides); assay: Test B postemergence; details: 13 to 15 days
Procedure, shortened: as §1

[10] = system: giant foxtail (Setaria faberii); assay: Test B postemergence; details: 13 to 15 days
Procedure, shortened: as §1

[11] = system: pigweed (Amaranthus retroflexus); assay: Test B postemergence; details: 13 to 15 days
Procedure, shortened: as §1

[12] = system: cocklebur (Xanthium strumarium); assay: Test B postemergence; details: 13 to 15 days
Procedure, shortened: as §1

[13] = system: corn (Zea mays); assay: Test B postemergence; details: 13 to 15 days
Procedure, shortened: as §1

[14] = system: velvetleaf (Abutilon theophrasti); assay: Test B preemergence
Procedure, shortened: as §1

[15] = system: Surinam grass (Brachiaria decumbens); assay: Test B preemergence
Procedure, shortened: as §1

[16] = system: barnyardgrass (Echinochloa crus-galli); assay: Test B preemergence
Procedure, shortened: as §1

[17] = system: morning glory (Ipomoea hederacea); assay: Test B preemergence
Procedure, shortened: as §1

[18] = system: crabgrass (Digitaria sanguinalis); assay: Test B preemergence
Procedure, shortened: as §1

[19] = system: giant foxtail (Setaria faberii); assay: Test B preemergence
Procedure, shortened: as §1

[20] = system: pigweed (Amaranthus retroflexus); assay: Test B preemergence
Procedure, shortened: as §1

[21] = system: cocklebur (Xanthium strumarium); assay: Test B preemergence
Procedure, shortened: as §1

[22] = system: rice (Oryza saliva); assay: Test B preemergence
Procedure, shortened: as §1

[23] = system: corn (Zea mays); assay: Test B preemergence
Procedure, shortened: as §1

[24] = system: Sunflower; assay: Test C preemergence; details: visual evaluation after 12 to 14 days
[25] = system: Nightshade; assay: Test C preemergence; details: visual evaluation after 12 to 14 days
[26] = system: smallflower flatsedge (Cyperus difformis); assay: Test C flooded paddy test; details: for Flatsedge plant response rating: Flooded Paddy, scale 0 to 100, 0 no effect, 100 complete control; for Plant response rating, Flatsedge: flooded paddy test, scale 0 to 100 (0 no effect, 100 complete control)
Procedure, shortened: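 Greenhouse-maintained for 12 to 14 days after treatment, the paddy plants (2-leaf stage at application) were scored visually against controls. A score of 0 denotes no effect and a score of 100 denotes complete control.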

[27] = Rate 125 g/ha, scale 0 (no effect) to 100 (complete control)
[28] = Rate 500 g/ha, scale 0 to 100, 0 is no effect, 100 is complete control
[29] = Preemergence, Rate 500 g/ha, scale 0 to 100, 0 no effect, 100 complete control
[30] = preemergence, Rate 125 g/ha, scale 0 to 100, 0 no effect, 100 complete control
[31] = preemergence, Rate 125 g/ha, scale of 0 to 100 where 0 is no effect and 100 is complete control, 13 to 15 days

CCC(C)c1ccn(C2SCN(c3cccc(C(F)(F)F)c3)C2=O)n1 (stereo not shown) [Compound 20]
Plant response rating, Velvetleaf [1, 27]: 10 | Plant response rating, Velvetleaf [1, 28]: 20 | Plant response rating, Lambsquarters [2, 27]: 90 | Plant response rating, Lambsquarters [2, 28]: 90 | Plant response rating, Surinam grass [3, 27]: 0 | Plant response rating, Surinam grass [3, 28]: 0 | Plant response rating, Barnyardgrass [4, 27]: 60 | Plant response rating, Barnyardgrass [4, 28]: 100 | Plant response rating, Morningglory [5, 27]: 60 | Plant response rating, Morningglory [5, 28]: 60 | Plant response rating, Wheat [6, 27]: 0 | Plant response rating, Wheat [6, 28]: 0 | Plant response rating, Crabgrass [7, 27]: 20 | Plant response rating, Crabgrass [7, 28]: 80 | Plant response rating, Wild Oat [8, 27]: 0 | Plant response rating, Wild Oat [8, 28]: 0 | Plant response rating, Blackgrass [9, 27]: 0 | Plant response rating, Blackgrass [9, 28]: 0 | Plant response rating, Foxtail, Giant [10, 27]: 50 | Plant response rating, Foxtail, Giant [10, 28]: 90 | Plant response rating, Pigweed [11, 27]: 90 | Plant response rating, Pigweed [11, 28]: 90 | Plant response rating, Cocklebur [12, 27]: 80 | Plant response rating, Cocklebur [12, 28]: 90 | Plant response rating, Corn [13, 27]: 0 | Plant response rating, Corn [13, 28]: 20 | Plant response rating, Velvetleaf [14, 29]: 0 | Plant response rating, Velvetleaf [14, 30]: 0 | Plant response rating, Surinam grass [15, 29]: 0 | Plant response rating, Surinam grass [15, 30]: 0 | Plant response rating, Barnyardgrass [16, 29]: 100 | Plant response rating, Barnyardgrass [16, 30]: 0 | Plant response rating, Morningglory [17, 29]: 0 | Plant response rating, Morningglory [17, 30]: 0 | Plant response rating, Crabgrass [18, 30]: 0 | Plant response rating, Foxtail, Giant [19, 29]: 100 | Plant response rating, Foxtail, Giant [19, 30]: 70 | Plant response rating, Pigweed [20, 29]: 100 | Plant response rating, Pigweed [20, 30]: 0 | Plant response rating, Cocklebur [21, 29]: 0 | Plant response rating, Cocklebur [21, 30]: 0 | Plant response rating, Rice [22, 29]: 0 | Plant response rating, Rice [22, 30]: 0 | Plant response rating, Corn [23, 29]: 0 | Plant response rating, Corn [23, 30]: 0 | Plant response rating (0 to 100), Sunflower ([24]; Rate 250 g/ha): 60 | Plant response rating (0 to 100), Nightshade ([25]; Rate 250 g/ha): 90 | Flatsedge plant response rating ([26]; Rate 250 g/ha): 100 | Flatsedge plant response rating ([26]; Rate 500 g/ha): 100 | Plant response rating, Flatsedge ([26]; Rate 62 g/ha): 90 | Plant response rating, Flatsedge ([26]; Rate 125 g/ha): 100

CCC(CC)c1ccn(C2CCN(c3cccc(OC(C)C)c3)C2=O)n1 (stereo not shown) [Compound 84]
Plant response rating, Velvetleaf [1, 27]: 0 | Plant response rating, Velvetleaf [1, 28]: 10 | Plant response rating, Lambsquarters [2, 27]: 50 | Plant response rating, Lambsquarters [2, 28]: 60 | Plant response rating, Surinam grass [3, 27]: 0 | Plant response rating, Surinam grass [3, 28]: 10 | Plant response rating, Barnyardgrass [4, 27]: 0 | Plant response rating, Barnyardgrass [4, 28]: 80 | Plant response rating, Morningglory [5, 27]: 10 | Plant response rating, Morningglory [5, 28]: 30 | Plant response rating, Wheat [6, 27]: 0 | Plant response rating, Wheat [6, 28]: 0 | Plant response rating, Crabgrass [7, 27]: 0 | Plant response rating, Crabgrass [7, 28]: 10 | Plant response rating, Wild Oat [8, 27]: 0 | Plant response rating, Wild Oat [8, 28]: 10 | Plant response rating, Blackgrass [9, 27]: 0 | Plant response rating, Blackgrass [9, 28]: 0 | Plant response rating, Foxtail, Giant [10, 27]: 0 | Plant response rating, Foxtail, Giant [10, 28]: 10 | Plant response rating, Pigweed [11, 27]: 60 | Plant response rating, Pigweed [11, 28]: 70 | Plant response rating, Cocklebur [12, 27]: 10 | Plant response rating, Cocklebur [12, 28]: 20 | Plant response rating, Corn [13, 27]: 0 | Plant response rating, Corn [13, 28]: 0 | Plant response rating, Velvetleaf [14, 29]: 0 | Plant response rating, Velvetleaf [14, 31]: 0 | Plant response rating, Surinam grass [15, 29]: 100 | Plant response rating, Surinam grass [15, 31]: 80 | Plant response rating, Barnyardgrass [16, 29]: 100 | Plant response rating, Barnyardgrass [16, 31]: 100 | Plant response rating, Morningglory [17, 29]: 0 | Plant response rating, Morningglory [17, 31]: 0 | Plant response rating, Crabgrass [18, 29]: 100 | Plant response rating, Crabgrass [18, 31]: 100 | Plant response rating, Foxtail, Giant [19, 29]: 100 | Plant response rating, Foxtail, Giant [19, 31]: 100 | Plant response rating, Pigweed [20, 29]: 100 | Plant response rating, Pigweed [20, 31]: 100 | Plant response rating, Cocklebur [21, 29]: 0 | Plant response rating, Cocklebur [21, 31]: 0 | Plant response rating, Rice [22, 29]: 100 | Plant response rating, Rice [22, 31]: 0 | Plant response rating, Corn [23, 29]: 20 | Plant response rating, Corn [23, 31]: 0 | Plant response rating (0 to 100), Sunflower ([24]; Rate 500 g/ha): 30 | Plant response rating (0 to 100), Nightshade ([25]; Rate 500 g/ha): 100 | Flatsedge plant response rating ([26]; Rate 250 g/ha): 100 | Flatsedge plant response rating ([26]; Rate 500 g/ha): 100 | Plant response rating, Flatsedge ([26]; Rate 62 g/ha): 90 | Plant response rating, Flatsedge ([26]; Rate 125 g/ha): 90
